From EP0377642B1, “HERBICIDES FOR WEED CONTROL IN RICE” (E.I. DU PONT DE NEMOURS AND COMPANY, priority 1987, dated 1989)

Tests used:
Type in all cases: in vivo
[1] = test system: transplanted rice (var. Nihonbare); experiment: Crop tolerance of transplanted rice, combinations with Thiobencarb, Dimepiperate, Esprocarb and Dymron (Table 15); settings: 2100 GAI/HA; 15 days after application
Excerpt: (§1) Methyl 2-[[[[(4-methoxy-6-methyl-1,3,5-triazin-2-yl)amino]carbonyl]amino]sulfonyl]benzoate (Compound 1) and mixtures thereof with other compounds were applied as a spray (using a hand sprayer) to rice (either transplanted or direct seeded) in several rice growing areas in Southeast Asia and in the U.S. Tables 1-28 contain the results of these tests and clearly exemplify the utility of this invention. The details of each application are included in the appropriate table. [drawing 2]

WEED [2] = experiment: Effects in combination with Bensulfuron Methyl and Thiobencarb or Pretilachlor on weed control (Table 24); settings: scale 0 to 10, treated at 1.0 leaf stage, evaluated four weeks later; for WEED CONTROL RATINGS CD: Cyperus difformis; for WEED CONTROL RATINGS CS: Cyperus serotinus; for WEED CONTROL RATINGS EO: Echinochloa oryzicola; for WEED CONTROL RATINGS BL: Lindernia pyxidaria; for WEED CONTROL RATINGS MV: Monochoria vaginalis; for WEED CONTROL RATINGS SP: Sagittaria pygmaea; for WEED CONTROL RATINGS SJ: Scirpus juncoides
Excerpt: as §1

WEED [3] = experiment: Effects in combination with Bensulfuron Methyl and Thiobencarb or Pretilachlor on weed control (Table 25); settings: scale 0 to 10, treated at 2.0 leaf stage, evaluated four weeks later; for WEED CONTROL RATINGS CD: Cyperus difformis; for WEED CONTROL RATINGS CS: Cyperus serotinus; for WEED CONTROL RATINGS EO: Echinochloa oryzicola; for WEED CONTROL RATINGS BL: Lindernia pyxidaria; for WEED CONTROL RATINGS MV: Monochoria vaginalis; for WEED CONTROL RATINGS SP: Sagittaria pygmaea; for WEED CONTROL RATINGS SJ: Scirpus juncoides
Excerpt: as §1

rice [4] = experiment: Effects in combination with Bensulfuron Methyl and Thiobencarb or Pretilachlor on rice growth (Table 23); settings: var. Koshihikari, applied 7 days after transplanting, rated 21 days after application
Excerpt: as §1

rice [5] = experiment: Effects in combination with Thiobencarb and Bensulfuron Methyl on rice growth (Table 22); settings: rate 2100 g ai/ha; var. Koshihikari, applied 7 days after transplanting, rated 21 days after application
Excerpt: as §1

## Cc1ccc(NC(=O)NC(C)(C)c2ccccc2)cc1 [Dymron, 1-(α,α-dimethylbenzyl)-3-p-tolylurea]
[1]
  CROP TOLERANCE (Nihonbare) DW, dry weight relative to untreated check: 107%
  CROP TOLERANCE (Nihonbare) PH, plant height relative to untreated check: 102%
  CROP TOLERANCE (Nihonbare) VA, visual crop injury: 0%

## CCN(C(=O)SCc1ccccc1)C(C)C(C)C (stereo not shown) [Esprocarb, S-benzyl-N-ethyl-N-(1,2-dimethyl)-propylthiol carbamate]
[1]
  CROP TOLERANCE (Nihonbare) DW, dry weight relative to untreated check: 94%
  CROP TOLERANCE (Nihonbare) PH, plant height relative to untreated check: 92%
  CROP TOLERANCE (Nihonbare) VA, visual crop injury: 0%

## CCCOCCN(C(=O)CCl)c1c(CC)cccc1CC [PRETILACHLOR]
WEED [2]; rate 600 g ai/ha
  WEED CONTROL RATINGS CD: 10
  WEED CONTROL RATINGS CS: 3
  WEED CONTROL RATINGS EO: 10
  WEED CONTROL RATINGS BL: 10
  WEED CONTROL RATINGS MV: 5
  WEED CONTROL RATINGS SP: 3
  WEED CONTROL RATINGS SJ: 5
WEED [3]; rate 600 g ai/ha
  WEED CONTROL RATINGS CD: 10
  WEED CONTROL RATINGS CS: 3
  WEED CONTROL RATINGS EO: 7
  WEED CONTROL RATINGS BL: 7
  WEED CONTROL RATINGS MV: 3
  WEED CONTROL RATINGS SP: 6
  WEED CONTROL RATINGS SJ: 2

## CCCOCCN(C(=O)CCl)c1c(CC)cccc1CC [Pretilachlor]
Rice [4]; rate 600 g ai/ha
  CROP TOLERANCE DW (Dry weight relative to untreated check): 71%
  CROP TOLERANCE PH (Plant height relative to untreated check): 87%
  CROP TOLERANCE VA (Visual crop injury): 3%

## CCN(CC)C(=O)SCc1ccc(Cl)cc1 [Thiobencarb, S-[(4-chlorophenyl)methyl]diethylcarbamothioate, reference compound]
[1]
  CROP TOLERANCE (Nihonbare) DW, dry weight relative to untreated check: 112%
  CROP TOLERANCE (Nihonbare) PH, plant height relative to untreated check: 102%
  CROP TOLERANCE (Nihonbare) VA, visual crop injury: 0%
WEED [2]; rate 2100 g ai/ha
  WEED CONTROL RATINGS CD: 10
  WEED CONTROL RATINGS CS: 9
  WEED CONTROL RATINGS EO: 10
  WEED CONTROL RATINGS BL: 9
  WEED CONTROL RATINGS MV: 10
  WEED CONTROL RATINGS SP: 0
  WEED CONTROL RATINGS SJ: 7
Rice [4]; rate 2100 g ai/ha
  CROP TOLERANCE DW (Dry weight relative to untreated check): 81%
  CROP TOLERANCE PH (Plant height relative to untreated check): 93%
  CROP TOLERANCE VA (Visual crop injury): 2%
Rice [5]
  CROP TOLERANCE DW (Dry weight relative to untreated check): 99%
  CROP TOLERANCE PH (Plant height relative to untreated check): 99%
  CROP TOLERANCE VA (Visual crop injury): 0%
WEED [3]; rate 2100 g ai/ha
  WEED CONTROL RATINGS CD: 10
  WEED CONTROL RATINGS CS: 2
  WEED CONTROL RATINGS EO: 6
  WEED CONTROL RATINGS BL: 9.5
  WEED CONTROL RATINGS MV: 10
  WEED CONTROL RATINGS SP: 0
  WEED CONTROL RATINGS SJ: 8.5
